The record followed here is EP4818176A1, “TETRACYCLIC DERIVATIVE INHIBITOR, AND PREPARATION METHOD AND USE THEREFOR” (Shanghai Hansoh Biomedical Co., Ltd., priority 2023, dated 2025).

Where two headings read alike, the source gives them in different places.

One series deals with HCT116 wild-type cells. Nature of the series: Cell proliferation inhibition (CellTiter-Glo), HCT116 wild-type cells. It counts as cell-based. An excerpt: (§1) Test Example 2: Determination of the inhibitory effect of the compounds of the present invention on the proliferation activity of HCT116 and MTAP Knockout HCT116 cells.
(§2) 1 Experimental objective: The objective of this test example is to determine the inhibitory effect of the compound on the proliferation activity of HCT116 wild-type and HCT116 MTAP knockout cells. 2 Experimental instruments: Centrifuge (Eppendorf 5810R); microplate reader (BioTek Synergy H1 or PerkinElmer Envision); pipette (Eppendorf or Rainin). 3 Experimental reagents: HCT116 and MTAP Knockout HCT116 cells were purchased from Nanjing Cobioer; Cell Titer-Glo was purchased from Promega (Cat. No. G7573); McCoy'5A was purchased from Gibco (Cat. No. 12330031); FBS was purchased from Gibco (Cat. No. 10091148); PBS was purchased from Gibco (Cat. No. 10010023); trypsin was purchased from Gibco (Cat. No. 25200056); cell culture plates were purchased from Corning (Cat. No. 3610). 4 Experimental method: HCT116 and MTAP Knockout HCT116 cells were cultured in McCoy'5A medium containing 10% FBS until an appropriate cell density was reached. The cells were then collected and adjusted to a suitable concentration using complete medium. The cell suspension was seeded into a 96-well plate at 90 µL per well and allowed to adhere overnight in a 37°C, 5% CO2 incubator. Compound solutions of various concentrations were prepared using DMSO and culture medium, with a vehicle control set. The compound solutions were added to the 96-well plate at 10 µL per well, and the plate was incubated in a 37°C, 5% CO2 incubator for an additional 72-240 hours. After incubation, CellTiter-Glo solution was added, and the mixture was mixed uniformly by shaking, followed by incubation in the dark for 10 to 30 minutes. Luminescence was measured using a Synergy H1 or Envision microplate reader. 5 Experimental data processing method: The inhibition rate was calculated using the luminescence signal values, and the concentrations along with the inhibition rates were subjected to non-linear regression curve fitting using Graphpad Prism software to obtain the IC50 values.
A general note: Cellular ATP, detected with luciferase, serves as a proxy for viable cell number.

Series [1] addresses T1, PRMT5/MEP50-MTA protein complex (Homo sapiens, UniProt O14744).
T1 construct: purchased Viva Biotech
Nature of the series: Thermal shift assay: thermal stability (melting temperature) of PRMT5/MEP50-MTA protein complex. The note with it: final compound concentration 8 µM; 2 µM PRMT5/MEP50, 2 µM MTA; Tm minus Tm of DMSO vehicle control. It counts as binding. The source says:
Test Example 1: Determination of the ability of the compounds of the present invention to improve the thermal stability (melting temperature) of the PRMT5/MEP50-MTA protein complex.
1 Experimental objective: The objective of this test example is to determine the ability of the compound to improve the thermal stability of the PRMT5/MEP50-MTA protein complex, resulting in an increase in the protein melting temperature. 2 Experimental instruments: Quantitative PCR instrument (Quantstudio6 Flex) was purchased from Life Technologies; pipettes were purchased from Eppendorf or Rainin. 3 Experimental reagents and consumables: PRMT5/MEP50 protein was prepared by Viva Biotech; HEPES was purchased from Thermo Fisher Scientific (Cat. No. 15630080); DTT was purchased from Sigma (Cat. No. 43816-10ml); sodium chloride was purchased from Invitrogen (Cat. No. AM9760G); Protein Thermal Shift™ Dye Kit was purchased from Thermo Fisher Scientific (Cat. No. 4461146); methylthioadenosine (MTA) was purchased from Sigma (Cat. No. D5011). 4 Experimental method: In this experiment, the thermal shift method was used to measure the change in the melting temperature (Tm) of the PRMT5/MEP50-MTA protein complex before and after compound binding, thereby characterising the ability of the compound to improve the thermal stability of the PRMT5/MEP50-MTA protein complex. A solution containing 50 mM HEPES, 10 mM DTT, 2 µM MTA, SYPRO Orange and 250 mM NaCl was prepared as the experimental buffer. Human PRMT5/MEP50 protein was added to a final concentration of 2 µM, and the mixture was incubated at room temperature for 30 minutes. The above reaction mixture was aliquoted into 8-strip PCR tubes at 19.5 µL per tube. Then 0.5 µL of test compound or DMSO was added to each tube, providing a total reaction volume of 20 µL and a final compound concentration of 8 µM. 2.5% DMSO was set as the vehicle control. After incubation at room temperature for 10 minutes, the PCR tubes were placed in a PCR instrument, and the melt curve function was selected to measure the melting temperature of the PRMT5/MEP50-MTA protein complex in different treatment groups (heated from 25°C to 95°C, 0.03°C/s). 5 Experimental data processing method: The experimental data files from the PCR instrument were imported into the thermal shift software to obtain the melting temperature (Tm) for each treatment group.

A short description of series [2]: Pharmacokinetics in rats (plasma) after oral administration. Conditions: rat, in vivo, po, SD rats, p.o. 5 mg/kg. It counts as in vivo.
Procedure: Test Example 4: Determination of the pharmacokinetics of the compounds of the present invention in rats (plasma) after oral administration.
1 Study objective: SD rats were used as test animals to study the pharmacokinetic behaviour of the following example compounds in rats (plasma) after oral administration at a dose of 5 mg/kg. 2 Test scheme • 2.1 Test drugs: Vehicle formula: 0.5% CMC-Na (1% Tween 80); the examples of the present invention, made in house. • 2.2 Test animals: 3 SD rats per group, male, purchased from Shanghai Bikai Keyi Biotechnology Co., Ltd., with animal license number (SCXK (Shanghai) 2018-0006, No.20180006037467). • 2.3 Administration: 3 SD rats per group, male, were fasted overnight and then respectively administered PO at a dose of 5 mg/kg and a volume of 10 mL/kg. • 2.4 Sample collection: 0.2 mL of blood was collected from the jugular vein of rats before administration and at 0, 0.25, 0.5, 1, 2, 4, 6, 8 and 24 h after administration, and placed in EDTA-K2test tubes, and the test tubes were centrifuged at 6,000 rpm at 4°C for 6 min to separate the plasma, which was stored at -80°C. The animals were fed 4 h after administration. • 2.5 Sample treatment • 1) 160 uL of acetonitrile was added to 40 uL of plasma sample for precipitation, and after mixing, the mixture was centrifuged at 3,500 × g for 5-20 minutes. • 2) 100 uL of the treated supernatant solution was taken for LC/MS/MS analysis to determine the concentration of the test compounds. • 2.6 Liquid phase analysis • Liquid phase conditions: Shimadzu LC-20AD pump;mass spectrometry conditions: AB Sciex API 4000 mass spectrometer • Chromatographic column: Phenomenex Gemiu 5 um C18 50 × 4.6 mm • Mobile phase: solution A: 0.1% formic acid in water, solution B: methanol • Flow rate: 1.0 mL/min, elution time: 0-4.0 min, with eluents as follows:
Experimental results and analysis: The main pharmacokinetic parameters were calculated using WinNonlin 8.2.
Series [3] has as its system MTAP Knockout HCT116 cells. In words: Cell proliferation inhibition (CellTiter-Glo), HCT116 MTAP knockout cells. It counts as cell-based. Conditions: for Selectivity: HCT116 IC50 versus MTAP Knockout HCT116 IC50.
Text: as §1, §2

Where [4] appears, read: Homo sapiens, HCT-116, HCT116 wild-type cells, proliferation inhibition, Cell Titer-Glo, read-out: HCT116 IC50.
Where [5] appears, read: Homo sapiens, HCT-116, MTAP Knockout HCT116 cells, proliferation inhibition, Cell Titer-Glo, read-out: MTAP Knockout HCT116 IC50.
The mark [6] stands for this setting: Homo sapiens, HCT-116, read-out: HCT116 IC50.
[7] abbreviates: Homo sapiens, HCT-116, read-out: MTAP Knockout HCT116 IC50.

T1 sequence (O14744 whole entry): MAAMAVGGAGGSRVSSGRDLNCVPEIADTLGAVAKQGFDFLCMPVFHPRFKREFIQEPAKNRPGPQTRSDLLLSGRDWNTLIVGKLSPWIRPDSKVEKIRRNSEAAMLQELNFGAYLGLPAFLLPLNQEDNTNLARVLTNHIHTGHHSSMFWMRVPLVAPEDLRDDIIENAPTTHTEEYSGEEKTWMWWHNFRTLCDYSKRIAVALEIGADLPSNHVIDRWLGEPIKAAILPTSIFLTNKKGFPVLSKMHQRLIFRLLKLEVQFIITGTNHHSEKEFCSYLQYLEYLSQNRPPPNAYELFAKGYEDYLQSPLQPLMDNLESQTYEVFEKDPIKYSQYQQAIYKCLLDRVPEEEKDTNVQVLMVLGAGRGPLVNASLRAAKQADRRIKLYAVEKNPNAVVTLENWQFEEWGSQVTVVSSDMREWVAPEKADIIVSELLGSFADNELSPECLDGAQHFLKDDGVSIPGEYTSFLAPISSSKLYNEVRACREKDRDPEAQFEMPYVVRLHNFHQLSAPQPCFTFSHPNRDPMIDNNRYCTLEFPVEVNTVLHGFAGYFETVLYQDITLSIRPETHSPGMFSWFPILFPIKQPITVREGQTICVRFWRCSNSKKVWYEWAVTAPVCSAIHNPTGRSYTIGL
T1 sequence (Q9BQA1 whole entry partner): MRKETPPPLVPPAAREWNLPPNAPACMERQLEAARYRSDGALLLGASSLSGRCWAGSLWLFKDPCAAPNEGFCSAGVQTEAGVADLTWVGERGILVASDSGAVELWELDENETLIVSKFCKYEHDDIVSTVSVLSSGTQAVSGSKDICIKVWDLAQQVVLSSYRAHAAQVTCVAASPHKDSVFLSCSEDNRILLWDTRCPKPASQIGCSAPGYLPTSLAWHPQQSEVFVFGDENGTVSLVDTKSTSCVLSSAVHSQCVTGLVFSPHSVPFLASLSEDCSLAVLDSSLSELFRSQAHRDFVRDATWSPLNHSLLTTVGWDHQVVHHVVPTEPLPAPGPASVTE

Turning to `Nc1nc2cc3c(cc2n2cncc12)C(=O)N(C1COc2cc(C(F)(F)F)ccc21)CCC/C=C\3` (racemic) [Example 164, (Z)-4-Amino-12-(6-(trifluoromethyl)-2,3-dihydrobenzofuran-3-yl)-9,10,11,12-tetrahydro-13H-azo[4,3-g]imidazo[1,5-a]quinoxalin-13-one], the IC50 in the series on HCT116 wild-type cells (setting [4]) was determined as 6630 nM. Moreover, the ΔTm at 8 µM in series [1] turned out to be 11.2 °C. In series [2], this molecule had an AUC(0-inf) of 2520 ng·h/mL and a half-life of 4.7 h. In addition, the Cmax in series [2] (read-out: Cmax) came out at 183 ng/mL. Moreover, the MRT inf in series [2] (read-out: MRT0-∞) came out at 7.6 h. The Tmax in series [2] (read-out: tmax) worked out at 4 h. Also, in series [3], the Selectivity stood at 406. For the same molecule, the IC50 in series [3] (setting [5]) is 16 nM.

Regarding `Nc1nc2cc3c(cc2c2c1COC2)C(=O)N(Cc1ccc(-c2c(F)cccc2F)cn1)CCCOC3` [Example 431, 4-Amino-12-(5-(2,6-difluorophenyl)pyridin-2-yl)methyl-3,7,9,10,11,12-hexahydrofuro[3,4-c][1,5]oxazolino[7,8-g]quinolin-13(1H)-one], the IC50 worked out at 200 nM with HCT116 wild-type cells (setting [6]) and 3.3 nM in series [3] (setting [7]). The ΔTm at 8 µM in series [1] amounted to 12.3 °C. Moreover, the Selectivity in series [3] amounted to 61.

With `CC1OCc2c1c(N)nc1cc3c(cc21)C(=O)N(Cc1ccc(-c2c(F)cccc2F)cn1)CCCNC3` (stereo not drawn) [Example 435, 4-Amino-12-((5-(2,6-difluorophenyl)pyridin-2-yl)methyl)-3-methyl-1,3,7,8,9,10,11,12-octahydro-13H-[1,5]diamine[7,8-g]furo[3,4-c]quinolin-13-one], the half-inhibitory concentration (IC50) came out at 78 nM in the series on HCT116 wild-type cells (setting [6]) and 1.9 nM in series [3] (setting [7]). Moreover, the ΔTm at 8 µM in series [1] turned out to be 12.8 °C. Further, the Selectivity in series [3] was 41.

Take `Nc1nc2cc3c(cc2n2cncc12)C(=O)N(Cc1ccc(C24CC(C2)C4)cn1)CCCOC3` [Example 484, 4-Amino-12-((5-(bicyclo[1.1.1]pentan-1-yl)pyridin-2-yl)methyl)-9,10,11,12-tetrahydroimidazo[1,5-a][1,5]oxazolo[8,7-g]quinoxalin-13(7H)-one]: the IC50 in the series with HCT116 wild-type cells (setting [4]) was determined as 379 nM; in series [3] (setting [5]) it was 9.9 nM. In series [1], the ΔTm at 8 µM came out at 11.9 °C. In addition, the Selectivity in series [3] turned out to be 38.

Turning to `Nc1nc2cc3c(cc2c2c1COC2)C(=O)N(Cc1ccc(C24CC(C2)C4)cn1)CCCOC3` [Example 510, 4-Amino-12-((5-(bicyclo[1.1.1]pentan-1-yl)pyridin-2-yl)methyl)-3,7,9,10,11,12-hexahydrofuro[3,4-c][1,5]oxazolo[7,8-g]quinolin-13(1H)-one], the figures for the IC50 (in the series on HCT116 wild-type cells (setting [6]); in series [3] (setting [7])) were 771 nM and 12 nM, respectively. In addition, in series [1], the ΔTm at 8 µM came to 11.3 °C. Also, in series [3], the Selectivity stood at 66.

For the molecule `C[C@H]1CCCN(Cc2ccc(C(F)(F)F)cn2)C(=O)c2cc3c(cc2C1)nc(N)c1cncn13` [Example 514-P2, (S)-4-amino-8-methyl-12-((5-(trifluoromethyl)pyridin-2-yl)methyl)-7,8,9,10,11,12-hexahydro-13H-azo[4,3-g]imidazo[1,5-a]quinoxalin-13-one], the 50% inhibitory concentration (IC50) is 1000 nM with HCT116 wild-type cells (setting [6]) and 14 nM in series [3] (setting [7]). In addition, in series [1], the thermal shift (ΔTm) at 8 µM is 11.6 °C. Moreover, the Selectivity in series [3] is on record as 71.

“(R, Z)-4-amino-12-(2-(trifluoromethyl)-5,8-dihydro-6H-pyrano[3,4-b]pyridin-5-yl)-9,10,11,12-tetrahydro-13H-aza[4,3-g]imidazo[1,5-a]quinoxalin-13-one [Example 158-P1]”: the IC50 with HCT116 wild-type cells (HCT116 wild-type cells, proliferation inhibition, Cell Titer-Glo, read-out: HCT116 IC50) is 708 nM; in series [3] (MTAP Knockout HCT116 cells, proliferation inhibition, Cell Titer-Glo, read-out: MTAP Knockout HCT116 IC50), 8.7 nM. In addition, in series [1], the “ΔTm (°C)” value turned out to be 12.03 °C. Besides, the Selectivity in series [3] came to 81.

As usually defined, the IC50 is the midpoint of a concentration-inhibition curve. As usually defined, the ΔTm is the shift of the melting midpoint relative to a reference. What is called AUC(0-inf) is the area under the concentration-time curve extrapolated to infinity. Read a high AUC(0-inf) as more exposure. Broadly, the half-life is the time in which the quantity being followed falls by half. A high value points to slow decline. The term Cmax denotes the peak of the concentration-time curve. In general, Tmax refers to the time at which the peak concentration occurs.
